Reference: patent US12378250B2, “Tricyclic compound as IRAK4 inhibitor” (KOREA RESEARCH INSTITUTE OF CHEMICAL TECHNOLOGY, priority 2018, dated 2025)

Target: T1, IRAK4 enzyme (Homo sapiens, UniProt Q9NWZ3)
T1 sequence (Q9NWZ3 1-460): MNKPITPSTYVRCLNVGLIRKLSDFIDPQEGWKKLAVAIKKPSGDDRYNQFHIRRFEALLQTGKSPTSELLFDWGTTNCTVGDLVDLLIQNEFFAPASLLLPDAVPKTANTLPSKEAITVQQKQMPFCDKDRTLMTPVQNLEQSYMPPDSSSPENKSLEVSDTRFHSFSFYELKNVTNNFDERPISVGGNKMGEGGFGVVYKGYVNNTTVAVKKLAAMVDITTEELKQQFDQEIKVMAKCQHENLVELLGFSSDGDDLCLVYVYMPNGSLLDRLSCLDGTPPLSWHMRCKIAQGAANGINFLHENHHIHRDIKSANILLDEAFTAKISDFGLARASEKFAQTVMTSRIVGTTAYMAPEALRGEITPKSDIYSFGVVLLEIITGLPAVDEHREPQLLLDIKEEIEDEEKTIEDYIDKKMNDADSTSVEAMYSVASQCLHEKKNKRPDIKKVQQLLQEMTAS
Test: IRAK4 enzyme inhibition degree (bead-based kinase assay, peptide substrate BMKC-2, 100 μM ATP)
Type: biochemical
Settings: for inhibition at 1 µM: compound 1 μM
Description: 2.5 μl of a compound diluted to 4-fold of a final concentration was put into a 384-well white plate (low volume). 2.5 μl of 0.4 ng/μl IRAK4 enzyme was added thereto, and the resulting mixture was totally reacted for 10 minutes. 5 μl of a mixed liquid of a 6 μM peptide substrate (BMKC-2) and 100 μM ATP was added thereto, the resulting mixture was reacted at room temperature for 60 minutes, then 2.5 μl of 10 mM EDTA was added thereto, and the resulting mixture was reacted again for 10 minutes. 40 nM anti-phospho Thr antibody was aliquoted to 2.5 μl each, 5 μl of a mixed solution of a 160 μl/ml acceptor bead and a donor bead was added thereto, and then the resulting mixture was reacted at room temperature for 60 minutes. Fluorescence signals were measured using a bead experimental apparatus (Fusion alpha-FP Microplate Reader, Perkin Elmer Inc.).
From the detected signal, an activity inhibition rate [% inhibition degree=(the average value of a compound−the average value of a negative control)/(the average value of a positive control−the average value of a negative control)×100] was calculated, and is shown in [Table 1]. Further, a % inhibition degree of the compound at each concentration was obtained, and then a 50% inhibition concentration (IC50 value) was analyzed by a non-linear regression analysis.

SMILES: Cn1cc(-c2ccc3[nH]c4ncnc(NCCCN5CCOCC5)c4c3c2)cn1 [Compound 6aea, 6-(1-methyl-1H-pyrazol-4-yl)-N-(3-morpholinopropyl)-9H-pyrimido[4,5-b]indole-4-amine]
- IC50: 1530 nM
- inhibition at 1 µM: 34%

SMILES: c1nc(N[C@H]2CC[C@H](N3CCOCC3)CC2)c2c(n1)[nH]c1ccc(-c3nnc4n3CCC4)cc12 [Compound 6bad, 6-(6,7-dihydro-5H-pyrrolo[2,1-c][1,2,4]triazol-3-yl)-N-(trans-4-morpholinocyclohexyl)-9H-pyrimido[4,5-b]indole-4-amine]
- IC50: 928 nM
- inhibition at 1 µM: 52%

SMILES: Fc1cncc(-c2ccc3[nH]c4ncnc(N[C@H]5CC[C@H](N6CCOCC6)CC5)c4c3n2)c1 [Compound 23a, 6-(5-fluoropyridin-3-yl)-N-(trans-4-morpholinocyclohexyl)-9H-pyrido[2′,3′:4,5]pyrrolo[2,3-d]pyrimidin-4-amine]
- IC50: 79 nM
- inhibition at 1 µM: 91%

SMILES: CCOC(=O)c1ccc2[nH]c3ncnc(Nc4ccc(OC)cc4)c3c2c1 [Compound 5bc, ethyl 4-((4-methoxyphenyl)amino)-9H-pyrimido[4,5-b]indole-6-carboxylate]
- inhibition at 1 µM: 9%

SMILES: Cn1cc(-c2ccc3[nH]c4ncnc(NCCN5CCOCC5)c4c3c2)cn1 [Compound 6ada, 6-(1-methyl-1H-pyrazol-4-yl)-N-(2-morpholinoethyl)-9H-pyrimido[4,5-b]indole-4-amine]
- IC50: 861 nM
- inhibition at 1 µM: 53%

SMILES: COC(=O)c1ccc2c(c1)[nH]c1ncnc(Nc3ccc(N4CCOCC4)cc3)c12 [Compound 5db, methyl 4-((4-morpholinophenyl)amino)-9H-pyrimido[4,5-b]indole-7-carboxylate]
- inhibition at 1 µM: < 1%

SMILES: N#Cc1cncc(-c2ccc3[nH]c4ncnc(N[C@H]5CC[C@H](N6CCOCC6)CC5)c4c3c2)c1 [Compound 6aao, 5-(4-((trans-4-morpholinocyclohexyl)amino)-9H-pyrimido[4,5-b]indol-6-yl) nicotinonitrile]
- IC50: 63 nM
- inhibition at 1 µM: 74%

SMILES: COC(=O)c1ccc2c(c1)[nH]c1nc(-c3cccc([N+](=O)[O-])c3)nc(N[C@H]3CC[C@H](N4CCOCC4)CC3)c12 [Compound 11b, methyl 4-((trans-4-morpholinocyclohexyl)amino)-2-(3-nitrophenyl)-9H-pyrimido[4,5-b]indole-7-carboxylate]
- inhibition at 1 µM: 10%

SMILES: Cn1cc(-c2ccc3[nH]c4ncnc(NCCN5CCN(C(=O)OC(C)(C)C)CC5)c4c3c2)cn1 [Compound 6afa, tert-butyl 4-(2-((6-(1-methyl-1H-pyrazol-4-yl)-9H-pyrimido[4,5-b]indol-4-yl)amino)ethyl)piperazine-1-carboxylate]
- IC50: 1050 nM
- inhibition at 1 µM: 36%

SMILES: Cc1nnc(-c2ccc3[nH]c4ncnc(N[C@H]5CC[C@H](N6CCOCC6)CC5)c4c3c2)o1 [Compound 6bae, 6-(5-methyl-1,3,4-oxadiazol-2-yl)-N-(trans-4-morpholinocyclohexyl)-9H-pyrimido[4,5-b]indole-4-amine]
- IC50: 8 nM
- inhibition at 1 µM: 94%

SMILES: c1nc(N[C@H]2CC[C@H](N3CCOCC3)CC2)c2c(n1)[nH]c1ccc(-c3nnc[nH]3)cc12 [Compound 6baa, N-(trans-4-morpholinocyclohexyl)-6-(4H-1,2,4-triazol-3-yl)-9H-pyrimido[4,5-b]indole-4-amine]
- IC50: 308 nM
- inhibition at 1 µM: 70%

SMILES: Cc1nnc(-c2ccc3[nH]c4ncnc(N[C@H]5CC[C@H](N6CCOCC6)CC5)c4c3c2)[nH]1 [Compound 6bab, 6-(5-methyl-4H-1,2,4-triazol-3-yl)-N-(trans-4-morpholinocyclohexyl)-9H-pyrimido[4,5-b]indole-4-amine]
- IC50: 210 nM
- inhibition at 1 µM: 86%

SMILES: CS(=O)(=O)N1CCC(n2cc(-c3ccc4[nH]c5ncnc(N[C@H]6CC[C@H](N7CCOCC7)CC6)c5c4c3)cn2)CC1 [Compound 6aas, 6-(1-(1-(methylsulfonyl)piperidin-4-yl)-1H-pyrazol-4-yl)-N-(trans-4-morpholinocyclohexyl)-9H-pyrimido[4,5-b]indole-4-amine]
- IC50: 50 nM
- inhibition at 1 µM: 79%

SMILES: CC(C)(C)OC(=O)N1CCC(n2cc(-c3ccc4[nH]c5ncnc(N[C@H]6CC[C@H](N7CCOCC7)CC6)c5c4c3)cn2)CC1 [Compound 6aaq, tert-butyl 4-(4-(4-((trans-4-morpholinocyclohexyl)amino)-9H-pyrimido[4,5-b]indol-6-yl)-1H-pyrazol-1-yl)piperidine-1-carboxylate]
- IC50: 565 nM
- inhibition at 1 µM: 59%

SMILES: N#Cc1cc(F)cc(-c2ccc3[nH]c4ncnc(N[C@H]5CC[C@H](N6CCOCC6)CC5)c4c3c2)c1 [Compound 6aap, 3-fluoro-5-(4-((trans-4-morpholinocyclohexyl)amino)-9H-pyrimido[4,5-b]indol-6-yl) benzonitrile]
- IC50: 780 nM
- inhibition at 1 µM: 56%

SMILES: O=c1[nH]nc(-c2ccc3[nH]c4ncnc(N[C@H]5CC[C@H](N6CCOCC6)CC5)c4c3c2)[nH]1 [Compound 6baf, 5-(4-((trans-4-morpholinocyclohexyl)amino)-9H-pyrimido[4,5-b]indol-6-yl)-2,4-dihydro-3H-1,2,4-triazole-3-one]
- IC50: 509 nM
- inhibition at 1 µM: 70%

SMILES: Cn1cnnc1-c1ccc2[nH]c3ncnc(N[C@H]4CC[C@H](N5CCOCC5)CC4)c3c2c1 [Compound 6bac, 6-(4-methyl-4H-1,2,4-triazol-3-yl)-N-(trans-4-morpholinocyclohexyl)-9H-pyrimido[4,5-b]indole-4-amine]
- IC50: 842 nM
- inhibition at 1 µM: 60%

SMILES: c1nc(N[C@H]2CC[C@H](N3CCOCC3)CC2)c2c(n1)[nH]c1ccc(-c3cnn(C4CCNCC4)c3)cc12 [Compound 6aar, N-(trans-4-morpholinocyclohexyl)-6-(1-(piperidin-4-yl)-1H-pyrazol-4-yl)-9H-pyrimido[4,5-b]indole-4-amine]
- IC50: 137 nM
- inhibition at 1 µM: 78%

SMILES: Cn1cc(-c2ccc3[nH]c4ncnc(OCCN5CCOCC5)c4c3c2)cn1 [Compound 6aha, 4-(2-((6-(1-methyl-1H-pyrazol-4-yl)-9H-pyrimido[4,5-b]indol-4-yl)oxy)ethyl)morpholine]
- IC50: 1040 nM
- inhibition at 1 µM: 41%
